According to patent US11867689B2, “Engineered renal tissues, arrays thereof, and methods of making the same” (Organovo, Inc., priority 2014, dated 2024):

Legend:
[1] = system: interstitial tissue alone
3D renal tubule model [2] = format: cell-based, human
Description: To reduce the thickness and cellularity of the interstitial layer, the cell ratio was changed to 50% fibroblasts/50% HUVEC the concentration of the cells was 1.25×10^8 cells/mL. The interstitial layer of the renal proximal tubule model is composed of renal fibroblasts and HUVECs in Novogel® 2.0. […] E-cadherin (green) at the lateral membranes between RPTECs corresponds to tight junctions (FIGS. 9A, B and C). Further, the basement membrane corresponding to the interstitial layer produces collagen (FIGS. 9A and B; stained with red). H & E staining is shown (FIG. 10A), and brush borders are indicated (FIG. 11A, arrows). Trichrome staining indicates collagen secretion (FIGS. 10B, blue and 11B, arrows), and CD31 staining indicates the presence of HUVEC networks (FIG. 12, asterisks). […] As a positive control, hTERT-RPTEC cells cultured as a monolayer in 2D were assessed. As a negative control, bioprinted renal interstitial tissues without epithelium were also assayed to verify that the detected GGT activity was epithelial-specific. At culture day 3, 10, 14, 21, or 28, 2D hTERT-RPTEC, 3D interstitium tissues, or 3D bioprinted tubule tissues were homogenized and assessed for functional GGT enzymatic activity using a colorimetric assay available from Sigma-Aldrich. […]

[3] = system: 3D renal tubule model (interstitial tissue and epithelial tissue); format: cell-based, human
[4] = system: epithelial layer comprising primary cells (070615-RPTEC); experiment: GGT activity, renal tubule model with primary epithelial layer; format: cell-based, human; conditions: primary cells (070615-RPTEC) compared with hTERT-RPTEC; FIG. 23B
Description: To assess the maturity and function of the epithelial component of the 3D bioprinted tubule model, tissues were homogenized and assayed for gamma glutamyl-transferase (GGT) activity. […] As a positive control, hTERT-RPTEC cells cultured as a monolayer in 2D were assessed. […] At culture day 3, 10, 14, 21, or 28, 2D hTERT-RPTEC, 3D interstitium tissues, or 3D bioprinted tubule tissues were homogenized and assessed for functional GGT enzymatic activity using a colorimetric assay available from Sigma-Aldrich.

3D renal tubule model [5] = experiment: histology of treated 3D renal tubule models; format: cell-based, human; conditions: 50 ng/mL TGFβ; FIG. 22D

Molecule | toxicity by alamarBlue assay [1] | GGT activity (3D renal tubule model [2]) | toxicity by alamarBlue assay [3] | sensitivity in the GGT assay, primary versus immortalized cells [4] | Masson's trichrome staining histology (fibrosis) (3D renal tubule model [5])
C[C@@H]1[C@H](O)[C@@H](C)/C=C/C=C/C=C/C=C/C=C/C=C/C=C/[C@H](O[C@@H]2O[C@H](C)[C@@H](O)[C@H](N)[C@@H]2O)C[C@@H]2O[C@](O)(C[C@@H](O)C[C@@H](O)[C@H](O)CC[C@@H](O)C[C@@H](O)CC(=O)O[C@H]1C)C[C@H](O)[C@H]2C(=O)O [AmpB, amphotericin B] | resistant | dose dependent reduction in GGT activity | dose dependent cytotoxicity |  | 
N.N.[Cl][Pt][Cl] [cisplatin] |  | dose dependent reduction in GGT activity |  | enhanced sensitivity | 
TGFβ: listed among common cytotoxic agents; treatment at 50 ng/mL increased fibrosis |  |  |  |  | increase in fibrosis without the overt cell death
